Laboratory results published in PubChem BioAssay AID1322 (NMMLSC, 2008).
Calls of active or inactive are those of the source. No rule for the calls is given here.

Biological target: Bcl-2-like protein 1 (Homo sapiens) (UniProt Q07817)
Assay: Bcl-XL binding to Bim peptide disruption – biochemical, multiplexed, bead flow cytometry, human Bcl-XL, dose response (AID 1322); as to inhibition: test concentration not given here
Settings: Bead-based flow cytometry, MCF; for inhibition: stronger effect = higher value

Chain of Bcl-2-like protein 1 (Homo sapiens) (Q07817 whole entry, looked up): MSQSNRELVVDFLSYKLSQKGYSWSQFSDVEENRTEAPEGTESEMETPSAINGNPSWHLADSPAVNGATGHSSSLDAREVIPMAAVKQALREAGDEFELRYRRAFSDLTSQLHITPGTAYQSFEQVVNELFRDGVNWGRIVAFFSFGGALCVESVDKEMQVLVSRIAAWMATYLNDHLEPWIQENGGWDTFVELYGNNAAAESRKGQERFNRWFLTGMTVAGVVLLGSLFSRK

inhibition | Compound | also measured
inactive | CCN(CC)c1ccc(Nc2nc(N3CCOCC3)c3ccccc3n2)cc1 | 
inactive | O=C(c1ccc(CNS(=O)(=O)c2ccc(Br)cc2)cc1)N1CCCC1 | 
inactive | Cc1cccc(NC(=S)N2CCn3cccc3C2c2cccnc2)c1 (configuration not stated) | 
inactive | O=C(c1ccccc1NS(=O)(=O)c1ccc(Br)s1)N1CCCC1 | 
inactive | Cc1ccc(-c2cc(C(=O)Nc3ccccc3C)c3ccccc3n2)o1 | 
inactive | COCc1cc(CN2CCCC(CNC(=O)c3ccc(F)cc3)C2)ccc1OC (configuration not stated) | 
inactive | CCOc1ccccc1NC(=O)CSc1nnc2ccc(-c3cccnc3)nn12 | 
inactive | Cc1ccc(S(=O)(=O)NC(=O)COc2ccccc2C)cc1 | 
inactive | O=C(OCc1cnc(Cl)s1)c1cccc(Cl)c1Cl | 
inactive | O=C(COc1ccccc1)N1CCN(c2ncnc3c2cnn3-c2ccccc2)CC1 | 
inactive | O=C(NCc1ccccc1)C(=O)Nc1nc(C23CC4CC(CC(C4)C2)C3)cs1 | 
inactive | CC1=NN(c2ccc(C)cc2)C(=O)/C1=C\c1ccc(Br)s1 | 
inactive | O=C1CSc2ccc(C(=O)Nc3cccc(S(=O)(=O)Nc4ccc(Br)cc4)c3)cc2N1 | 
inactive | Cn1c(CNc2nc(-c3ccccc3)cs2)nnc1SCC(=O)N1CCc2ccccc21 | 
inactive | COc1ccccc1NC1=C(NC(C)=O)C(=O)c2ccccc2C1=O | 
inactive | Cc1csc(Nc2ccccc2C(F)(F)F)n1 | 
inactive | O=C1C(Cl)=C(Nc2ccccc2O)C(=O)N1c1ccccc1 | 

Further lines, the compound ahead of its results:

Compound | inhibition | also measured
Cc1ccc(/C=C2\CCCC3=C2NC(=S)NC3c2ccc(C)cc2)cc1 (configuration not stated) | inactive | 
CCN1/C(=C\c2ccc3cc(C)ccc3[n+]2CC)Sc2cc(C)c(C)cc21 |  | outcome: inactive
CCC(CC)C(=O)Nc1cccc(SC)c1 | inactive | 
Fc1ccc(/C=C2\CCCC3=C2NC(=S)NC3c2ccc(F)cc2)cc1 (configuration not stated) | inactive | 
O=C(Nc1cccc(-c2ccc3nncn3n2)c1)c1ccco1 | inactive | 
COCCN=c1scc(-c2ccco2)n1/N=C/c1ccc(O)c(O)c1O |  | outcome: inactive
COc1ccc(CN(C)CC(=O)NC(C)c2ccccc2)c(OC)c1 (configuration not stated) | inactive | 
CCc1ccc(NC(=O)CC2NCCNC2=O)cc1 (configuration not stated) | inactive | 
CC1C=CCC2C(=O)N(c3ccc(OC(=O)c4cccs4)cc3)C(=O)C12 (configuration not stated) |  | outcome: inactive
CN(C)C(Cc1ccccc1)C(=O)c1cccs1 (configuration not stated) |  | outcome: inactive
Nc1ccc(-c2cn3cccnc3n2)cc1 |  | outcome: inactive
COc1cc(/C=N/Nc2nn3cnnc3c3ccccc23)ccc1O |  | EC50: inactive
Cc1ccc(NC(=O)CC2S/C(=N/N=C/c3c[nH]c4ccccc34)NC2=O)cc1 (configuration not stated) | inactive | 
Cc1cc(C)nc(/N=c2/ssnc2Cl)c1 | inactive | 
Cc1ccc(-c2cc(-c3ccc(F)cc3)nc(N)c2C#N)o1 | inactive | 
COc1cc(C2Nc3cccc4cccc(c34)N2)ccc1OC(C)=O | inactive | 
CCn1c(SCC(=O)Nc2ccc(C)cc2)nnc1-c1ccc(O)cc1 | inactive | 
COc1cc(/C=C2\S/C(=N/S(=O)(=O)c3ccccc3)NC2=O)c([N+](=O)[O-])cc1OC | inactive | 
CCN1C(=O)/C(=C\C=C2/C=CC=CN2CC)SC1=S | inactive | 
Cc1ccc(N=Cc2c(O)n(-c3ccc4c(c3)OCO4)c(=O)c3ccccc23)cc1 | inactive | 
Cc1ccc(-c2cc(-c3ccc(Cl)cc3)c(C#N)c(N)n2)o1 | inactive | 
CCOc1ccccc1CNc1ccc(O)cc1 |  | outcome: inactive
COc1ccccc1C1=Nc2cccc3cccc(c23)N1 | inactive | 
CCOc1ccccc1NC(=O)CSc1ccc2nnc(-c3cccnc3)n2n1 | inactive | 
Cc1cc[n+]2cc(-c3cccc([N+](=O)[O-])c3)c(-c3cccc([N+](=O)[O-])c3)cc2c1 |  | outcome: inactive
